The text below walks through data of ChEMBL document CHEMBL1201862, “PubChem BioAssay data set” (2004).

Test systems include HCT-116; Malme-3M; UO-31; MOLT-4; OVCAR-5; HOP-92; HL-60; SF-539; HCT-15; SK-MEL-28; IGROV-1; ACHN; TK-10; COLO 205; A498; PC-3; MCF7; Hs-578T; MDA-MB-435.
Common to all, as to assay: NCI-60 cell line screen, 48 h

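Five concentrations, 48 hours, 96-well plates. GI50 = concentration required for 50% inhibition of growth.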 Activity calls are given as the source filed them. No stated cut-off is given here; in the data, active = GI50 up to about 1.1 µM and inactive = higher.

Consider `Brc1cccc(/C=N/C23CC4CC(CC(C4)C2)C3)c1`, for which the GI50 in the assay on HCT-116, with Malme-3M, in the assay on UO-31, in the assay with MOLT-4, with OVCAR-5 and in the assay with HOP-92 was > 100 µM (inactive) in each case. Further, the GI50 was > 100 µM (inactive) with HL-60; > 100 µM (inactive) in the assay on SF-539; over 100 µM in the assay on HCT-15; > 100 µM (inactive) in the assay on SK-MEL-28; > 100 µM (inactive) in the assay on IGROV-1; > 100 µM (inactive) in the assay on ACHN. The GI50 in the assay on TK-10, in the assay on COLO 205 and with A498 was > 100 µM (inactive) each time.

For `CCOC(=O)C(C(=O)OCC)=C1C=C(c2ccccc2)c2ccccc21`, the GI50 was 48.9 µM (inactive) in the assay with HCT-116; > 100 µM (inactive) in the assay on Malme-3M; > 100 µM (inactive) with UO-31; 30.5 µM (inactive) in the assay with MOLT-4; 38.6 µM (inactive) with OVCAR-5; 8.09 µM (inactive) in the assay with HOP-92. The GI50 in the assay on HL-60 was 20.5 µM (inactive); in the assay on SF-539, 62.7 µM (inactive); in the assay with HCT-15 it was 25.8 µM; in the assay with SK-MEL-28, > 100 µM (inactive); in the assay on IGROV-1, > 100 µM (inactive); in the assay on ACHN it was 41 µM (inactive). Moreover, the GI50 was 79.1 µM (inactive) in the assay with TK-10, 54.2 µM (inactive) in the assay on COLO 205 and 13.4 µM (inactive) in the assay with A498.

In the case of `CN(C(=O)OC(C)(C)C)[C@H]1CCCC[C@H]1N1CCCC1`, the GI50 in the assay with HCT-116, in the assay with Malme-3M, with UO-31, in the assay on MOLT-4, with PC-3 and with MCF7 was > 100 µM (inactive) in each case. In addition, the GI50 with OVCAR-5 is > 100 µM (inactive); with HL-60, 5.81 µM (inactive); with SF-539, > 100 µM (inactive); with HCT-15, over 100 µM; in the assay on SK-MEL-28 it was > 100 µM (inactive); in the assay on IGROV-1, > 100 µM (inactive). Besides, the GI50 in the assay on ACHN, in the assay on Hs-578T, in the assay with TK-10, in the assay with COLO 205, with A498 and in the assay with MDA-MB-435 was > 100 µM (inactive) each time.

Consider `O=c1[nH]c(=O)n(C2OC(CO)C(O)C2O)cc1OCc1ccccc1` (centres undefined), for which the GI50 with HCT-116 was > 63.4 µM (inactive); with Malme-3M it was > 100 µM (inactive); with UO-31 it was > 100 µM (inactive); with MOLT-4 it was > 100 µM (inactive); in the assay with OVCAR-5 it was > 100 µM (inactive); in the assay with HOP-92, > 100 µM (inactive). The GI50 was > 52.8 µM (inactive) in the assay on HL-60; > 100 µM (inactive) in the assay with SF-539; over 59 µM with HCT-15; > 100 µM (inactive) with SK-MEL-28; > 100 µM (inactive) in the assay on IGROV-1; > 100 µM (inactive) with ACHN. In addition, the GI50 in the assay with TK-10 was > 100 µM (inactive); in the assay on COLO 205, > 64.7 µM (inactive); with A498, > 100 µM (inactive).

With `C/C(CC(=O)Nc1ccc([N+](=O)[O-])cc1)=N\Nc1ccc([N+](=O)[O-])cc1[N+](=O)[O-]`, the GI50 was 59.7 µM (inactive) with HCT-116; > 100 µM (inactive) in the assay with Malme-3M; 20.6 µM (inactive) in the assay with UO-31; 13.1 µM (inactive) in the assay with MOLT-4; > 100 µM (inactive) in the assay on OVCAR-5; 73.6 µM (inactive) in the assay with HOP-92. For the same compound, the GI50 with HL-60 is 31.9 µM (inactive); in the assay with SF-539 it was 41 µM (inactive); in the assay with HCT-15 it was 7.66 µM; in the assay on SK-MEL-28 it was > 100 µM (inactive); in the assay on IGROV-1, 71.8 µM (inactive); in the assay on ACHN, 10.8 µM (inactive). Also, the GI50 is > 100 µM (inactive) in the assay on TK-10, 89.7 µM (inactive) in the assay with COLO 205 and 59.8 µM (inactive) in the assay with A498.

As for `O=C1NC2(CCCCCC2)C2CCCCCCC12O` (centres undefined), the GI50 with HCT-116, in the assay with Malme-3M, in the assay on UO-31, with MOLT-4, in the assay on OVCAR-5 and in the assay with HOP-92 was > 100 µM (inactive) each time. Moreover, the GI50 with HL-60 is > 100 µM (inactive); in the assay with SF-539 it was > 100 µM (inactive); in the assay on HCT-15, over 100 µM; in the assay with SK-MEL-28, > 100 µM (inactive); with IGROV-1, > 100 µM (inactive); with ACHN it was > 100 µM (inactive). For the same compound, the GI50 with TK-10, with COLO 205 and in the assay with A498 was > 100 µM (inactive) throughout.

For the compound `CS(=O)(=O)Nc1ccc(Nc2ccnc3ccc4[nH]ccc4c23)cc1`, the GI50 with HCT-116 was 5.5 µM (inactive); in the assay on Malme-3M it was 3.88 µM (inactive); in the assay with UO-31, 29.7 µM (inactive); in the assay on MOLT-4 it was 3.13 µM (inactive); in the assay with PC-3, 12.4 µM (inactive); in the assay with MCF7 it was 4.89 µM (inactive). The GI50 was 26.3 µM (inactive) in the assay with OVCAR-5; 8.36 µM (inactive) with HOP-92; 21.4 µM (inactive) in the assay with HL-60; 46 µM in the assay on HCT-15; 15.8 µM (inactive) in the assay on SK-MEL-28; 20 µM (inactive) in the assay on IGROV-1. Also, the GI50 in the assay with ACHN was 21.5 µM (inactive); in the assay with Hs-578T, 21.8 µM (inactive); in the assay on TK-10 it was 30.2 µM (inactive); in the assay on COLO 205 it was 9.1 µM (inactive); in the assay on A498, 18.5 µM (inactive); in the assay with MDA-MB-435, 15.1 µM (inactive).

Regarding `O=C(C(=O)c1cc2ccccc2[nH]1)c1cc2ccccc2[nH]1`, the GI50 is 98.6 µM (inactive) with HCT-116; 152 µM (inactive) in the assay on Malme-3M; > 347 µM (inactive) with UO-31; 24 µM (inactive) in the assay on MOLT-4; > 347 µM (inactive) in the assay with OVCAR-5; > 127 µM (inactive) in the assay on HOP-92. Besides, the GI50 in the assay with HL-60 was 195 µM (inactive); with SF-539, > 347 µM (inactive); in the assay with HCT-15, 94.2 µM; in the assay on SK-MEL-28, 149 µM (inactive); in the assay on IGROV-1, > 347 µM (inactive); in the assay with ACHN it was > 347 µM (inactive). The GI50 with TK-10, in the assay with COLO 205 and in the assay on A498 was > 347 µM (inactive) throughout.

For `O=c1c2cccc3cccc(c4oc5c6cccc7cccc(c(=O)c5c14)c76)c32`, the GI50 was 2.25 µM (inactive) in the assay with HCT-116; 12.5 µM (inactive) in the assay with Malme-3M; 13.5 µM (inactive) with UO-31; 12.5 µM (inactive) with MOLT-4; 27.2 µM (inactive) in the assay on OVCAR-5; 8.22 µM (inactive) in the assay on HOP-92. Further, the GI50 in the assay with HL-60 was 9.18 µM (inactive); with SF-539, 15.8 µM (inactive); in the assay with HCT-15, 11.4 µM; with SK-MEL-28, 13.3 µM (inactive); in the assay with IGROV-1, 16.9 µM (inactive); in the assay on ACHN, 11.6 µM (inactive). Further, the GI50 with TK-10 was 11.6 µM (inactive); with COLO 205 it was 10.9 µM (inactive); in the assay on A498, > 100 µM (inactive).

As to `COc1ccc(O)cc1C(O)c1ccccc1` (centres undefined), the GI50 in the assay on HCT-116, in the assay on Malme-3M, in the assay on UO-31, in the assay with MOLT-4, in the assay on OVCAR-5 and in the assay with HOP-92 was > 100 µM (inactive) in each case. For the same compound, the GI50 was > 100 µM (inactive) with HL-60; > 100 µM (inactive) in the assay with SF-539; over 100 µM in the assay on HCT-15; > 100 µM (inactive) in the assay on SK-MEL-28; > 100 µM (inactive) in the assay on IGROV-1; > 100 µM (inactive) in the assay with ACHN. Moreover, the GI50 with TK-10, in the assay with COLO 205 and in the assay with A498 was > 100 µM (inactive) in each case.

For `COc1cc(C2c3[nH]c4ccc(F)cc4c3C[C@H]3COC(=O)N23)cc(OC)c1O` (some centres undefined), the GI50 in the assay on HCT-116 is 5.78 µM (inactive); in the assay with Malme-3M it was 14.7 µM (inactive); with UO-31 it was 12.6 µM (inactive); in the assay with MOLT-4, 3.73 µM (inactive); in the assay on PC-3, 9.16 µM (inactive); in the assay on MCF7 it was 3.33 µM (inactive). Moreover, the GI50 was 18.8 µM (inactive) in the assay with OVCAR-5; 15.8 µM (inactive) in the assay on HOP-92; 7.71 µM (inactive) in the assay on HL-60; 2.93 µM (inactive) in the assay on SF-539; 8.69 µM with HCT-15; 7.96 µM (inactive) in the assay with SK-MEL-28. Moreover, the GI50 was 13.2 µM (inactive) in the assay on IGROV-1; 5.79 µM (inactive) with ACHN; 2.85 µM (inactive) with Hs-578T; > 10 µM (inactive) in the assay with TK-10; 4.18 µM (inactive) in the assay with COLO 205; 6.71 µM (inactive) in the assay with A498.

On to `C=CCNC(=S)N/C=C1\C(=O)Oc2ccccc2C1=O`, for which the GI50 was 49.5 µM (inactive) in the assay with HCT-116; 27.4 µM (inactive) with Malme-3M; 27.5 µM (inactive) in the assay on UO-31; > 100 µM (inactive) in the assay on MOLT-4; 62.4 µM (inactive) in the assay on OVCAR-5; 30.5 µM (inactive) in the assay with HOP-92. The GI50 in the assay with HL-60 was > 100 µM (inactive); in the assay on SF-539 it was 55.5 µM (inactive); in the assay with HCT-15, 60.5 µM; in the assay with SK-MEL-28, > 100 µM (inactive); in the assay with IGROV-1, 41.6 µM (inactive); in the assay with ACHN, 32.1 µM (inactive). Moreover, the GI50 with TK-10 is 64.7 µM (inactive); with COLO 205, > 100 µM (inactive); with A498, 56.8 µM (inactive).

With `COc1cc2c(cc1OC)CC(=O)Nc1cc(OC)c(OC)cc1CC2`, the GI50 with HCT-116 was 49 µM (inactive); in the assay with Malme-3M it was 20.8 µM (inactive); in the assay on UO-31 it was 61.9 µM (inactive); in the assay with MOLT-4 it was 52.5 µM (inactive); with OVCAR-5, > 83.8 µM (inactive); in the assay with HOP-92, > 80.9 µM (inactive). Moreover, the GI50 is 20.8 µM (inactive) in the assay on HL-60; 33.2 µM (inactive) in the assay with SF-539; 55 µM in the assay on HCT-15; > 78.3 µM (inactive) in the assay with SK-MEL-28; > 85.9 µM (inactive) with IGROV-1; > 100 µM (inactive) in the assay with ACHN. In addition, the GI50 in the assay with TK-10 is > 77.4 µM (inactive); in the assay on COLO 205, 38.2 µM (inactive); with A498, 44.5 µM (inactive).
